Assay results published in ChEMBL document CHEMBL5665440, “ASAP - In vitro liver microsomal stability” (2024).

Experiment: Human liver microsomal stability of compound in microsomal protein, PBS buffer pH 7.4, NADPH, glucose-6-phosphate and glucose-6-phosphate dehydrogenase media. Aliquotes were taken at 5 time points and after stopping the reaction, supernatants were analyzed using HPLC coupled with a tandem mass spectrometer. The elimination constant, half-life, and intrinsic clearance are determined as results using linear regression analysis.
Format: ADME, microsomes, Microsome
Details: for half-life / microsomal CLint: liver microsomes; for Remaining / Remaining (without cofactor): microsomes
Wherever Remaining (without cofactor) is given: time not given here.
Wherever Remaining is given: time not given here.

Structure (SMILES): O=C(Nc1cc(Cl)cc(C(=O)Nc2ccc3c(c2)CNC3)c1)OCc1ccccc1
- half-life: 2.19 h
- microsomal CLint: 12.7 µL/min/mg
- Remaining: 81.215%
- Remaining (without cofactor): 98.946%

Structure (SMILES): NCc1cccc([C@@H]2C[C@H]2c2cc(Cl)cc(NC(=O)OCc3ccccc3)c2)c1
- half-life: 2.44 h
- microsomal CLint: 11.4 µL/min/mg
- Remaining: 87.168%
- Remaining (without cofactor): 92.769%

Structure (SMILES): O=C(Nc1cc(Cl)cc(C(=O)Nc2cccc(C3CCNCC3)c2)c1)OCc1ccccc1
- half-life: > 2.89 h
- microsomal CLint: < 10 µL/min/mg
- Remaining: 91.016%
- Remaining (without cofactor): 98.201%

Structure (SMILES): NCc1cccc(NC(=O)[C@@H](NC(=O)OCc2ccccc2)C2CCCCC2)c1
- half-life: 5.26 h
- microsomal CLint: 5.29 µL/min/mg
- Remaining: 90.368%
- Remaining (without cofactor): 108.836%

Structure (SMILES): N#C[C@H](Nc1cccc(-c2nn[nH]n2)c1)c1cc(Cl)cc(NC(=O)OCc2ccccc2)c1
- half-life: 2.04 h
- microsomal CLint: 13.6 µL/min/mg
- Remaining: 82.243%
- Remaining (without cofactor): 110.789%

Structure (SMILES): O=C(N[C@H]1[C@H]2CCCCC[C@H]2[C@H]1C(=O)Nc1cccc(C2CCNCC2)c1)OCc1ccccc1
- half-life: 0.89 h
- microsomal CLint: 31.3 µL/min/mg
- Remaining: 58.639%
- Remaining (without cofactor): 103.638%

Structure (SMILES): NCc1cccc(NC(=O)C[C@@H](NC(=O)OCc2ccccc2)c2ccc(OCc3ccccc3)cc2)c1
- half-life: 1.64 h
- microsomal CLint: 17 µL/min/mg
- Remaining: 76.547%
- Remaining (without cofactor): 105.768%

Structure (SMILES): O=C(O)COc1cccc(NC(=O)c2cc(Cl)cc(NC(=O)OCc3ccccc3)c2)c1
- half-life: > 2.89 h
- microsomal CLint: < 10 µL/min/mg
- Remaining: 98.934%
- Remaining (without cofactor): 109.497%

Structure (SMILES): NCc1cccc(NC(=O)c2cc(Cl)cc(CN)c2)c1
- half-life: 1.33 h
- microsomal CLint: 21 µL/min/mg
- Remaining: 124.297%
- Remaining (without cofactor): 104.813%

Structure (SMILES): O=C(O)c1cc(Cl)ccc1NS(=O)(=O)c1ccc(-c2ccccc2Cl)cc1
- half-life: 0.0813 h
- microsomal CLint: 343 µL/min/mg
- Remaining: 0.295%
- Remaining (without cofactor): 109.106%

Structure (SMILES): NCc1cccc(NC(=O)c2cccn3cc(CN4CCCC4)nc23)c1
- half-life: > 2.89 h
- microsomal CLint: < 10 µL/min/mg
- Remaining: 98.243%
- Remaining (without cofactor): 100.684%

Structure (SMILES): CNC(=O)[C@H](Nc1cccc(-c2nn[nH]n2)c1)c1cc(Cl)cc2[nH]ncc12
- half-life: > 2.89 h
- microsomal CLint: < 10 µL/min/mg
- Remaining: 97.01%
- Remaining (without cofactor): 105.868%

Structure (SMILES): NCc1cccc(NC(=O)[C@@H](NC(=O)OCc2ccccc2)C(C2CCC2)C2CCC2)c1
- half-life: 2.21 h
- microsomal CLint: 12.6 µL/min/mg
- Remaining: 77.895%
- Remaining (without cofactor): 94.537%

Structure (SMILES): CCOc1cccc(-c2ccc(S(=O)(=O)Nc3ccc(Cl)cc3C(=O)O)cc2)c1
- half-life: 0.233 h
- microsomal CLint: 119 µL/min/mg
- Remaining: 15.029%
- Remaining (without cofactor): 93.83%

Structure (SMILES): NCCc1ccc(NC(=O)c2cc(Cl)cc(NC(=O)OCc3ccccc3)c2)cc1
- half-life: 1.59 h
- microsomal CLint: 17.5 µL/min/mg
- Remaining: 76.258%
- Remaining (without cofactor): 74.637%

Structure (SMILES): NCc1cc(C(=O)O)cc([C@@H]2C[C@H]2c2cc(Cl)cc(NC(=O)OCc3ccccc3)c2)c1
- half-life: > 2.89 h
- microsomal CLint: < 10 µL/min/mg
- Remaining: 89.704%
- Remaining (without cofactor): 102.436%

Structure (SMILES): O=C(Nc1cc(Cl)cc(C(=O)Nc2n[nH]c3c2CNC3)c1)OCc1ccccc1
- half-life: > 2.89 h
- microsomal CLint: < 10 µL/min/mg
- Remaining: 100.832%
- Remaining (without cofactor): 95.38%

Structure (SMILES): c1ccc2sc(C3CCN(Cc4c[nH]c5ccccc45)CC3)nc2c1
- half-life: 0.73 h
- microsomal CLint: 38.1 µL/min/mg
- Remaining: 53.75%
- Remaining (without cofactor): 101.907%

Structure (SMILES): CC(C)CNC(=O)c1cc(Cl)c(F)cc1NS(=O)(=O)c1ccc(Oc2ccccc2Cl)cc1
- half-life: 0.14 h
- microsomal CLint: 198 µL/min/mg
- Remaining: 4%
- Remaining (without cofactor): 98%

Structure (SMILES): Cc1cc(OCc2ccccc2)ccc1NS(=O)(=O)c1ccc(Cl)cc1C(=O)O
- half-life: 1.25 h
- microsomal CLint: 22.3 µL/min/mg
- Remaining: 70.445%
- Remaining (without cofactor): 101.396%

Structure (SMILES): O=C(Nc1cc(Cl)cc(C(=O)Nc2cccc(-c3nnn[nH]3)c2)c1)OCc1ccccc1
- half-life: > 2.89 h
- microsomal CLint: < 10 µL/min/mg
- Remaining: 88.987%
- Remaining (without cofactor): 100.499%

Structure (SMILES): CNC(=O)[C@H](Nc1cc(Cl)cc(NC(=O)OCc2ccccc2)c1)c1cccc(-c2nn[nH]n2)c1
- half-life: 1.31 h
- microsomal CLint: 21.3 µL/min/mg
- Remaining: 70.065%
- Remaining (without cofactor): 102.307%

Structure (SMILES): NCc1cccc(NC(=O)c2cc(Cl)cc(NC(=O)OCc3ccccc3)c2)c1
- half-life: > 2.89 h
- microsomal CLint: < 10 µL/min/mg
- Remaining: 93.647%
- Remaining (without cofactor): 102.839%

Structure (SMILES): CCc1cc(C(=O)Nc2cccc(CN)c2)sc1-c1ccc(Cl)cc1
- half-life: > 2.89 h
- microsomal CLint: < 10 µL/min/mg
- Remaining: 114.72%
- Remaining (without cofactor): 98.952%

Structure (SMILES): O=C(NCC(F)(F)F)c1cc(Cl)c(F)cc1NS(=O)(=O)c1ccc(Oc2ccccc2Cl)cc1
- half-life: 0.4 h
- microsomal CLint: 70 µL/min/mg
- Remaining: 33%
- Remaining (without cofactor): 104%

Structure (SMILES): CC[C@@H](Cc1nnn[nH]1)c1ccc(NC(=O)c2cc(Cl)cc(NC(=O)OCc3ccccc3)c2)cc1
- half-life: 1.12 h
- microsomal CLint: 24.9 µL/min/mg
- Remaining: 66.587%
- Remaining (without cofactor): 100.68%

Structure (SMILES): c1ccc2c(CN3CCC(c4c[nH]c5cccnc45)CC3)c[nH]c2c1
- half-life: 1.69 h
- microsomal CLint: 16 µL/min/mg
- Remaining: 78.186%
- Remaining (without cofactor): 103.226%

Structure (SMILES): NCc1cccc(NC(=O)CN(C(=O)OCc2ccccc2)c2ccc(OCc3ccccc3)cc2)c1
- half-life: 2.6 h
- microsomal CLint: 11 µL/min/mg
- Remaining: 83%
- Remaining (without cofactor): 101%

Structure (SMILES): O=C(O)c1cc(Cl)c(F)cc1S(=O)(=O)Nc1ccc(Oc2ccccc2Cl)cc1
- half-life: 0.413 h
- microsomal CLint: 67.4 µL/min/mg
- Remaining: 33.369%
- Remaining (without cofactor): 97.65%

Structure (SMILES): NCc1cccc(NC(=O)c2cc(OCc3ccccc3)ccc2CNC(=O)OCc2ccccc2)c1
- half-life: 1.31 h
- microsomal CLint: 21 µL/min/mg
- Remaining: 69%
- Remaining (without cofactor): 103%

Structure (SMILES): Cc1cc(-c2ccc([C@@H](NC(=O)OCc3ccccc3)C(=O)Nc3cccc(CN)c3)cc2)cs1
- half-life: 0.943 h
- microsomal CLint: 29.5 µL/min/mg
- Remaining: 62.909%
- Remaining (without cofactor): 101.077%

Structure (SMILES): N#C[C@H](Nc1cccc(C(=O)O)c1)c1cc(Cl)cc2[nH]ncc12
- half-life: 2.33 h
- microsomal CLint: 12 µL/min/mg
- Remaining: 81.554%
- Remaining (without cofactor): 89.628%

Structure (SMILES): CC(C)c1nc2c(C(=O)Nc3cccc(CN)c3)cccc2[nH]1
- half-life: > 2.89 h
- microsomal CLint: < 10 µL/min/mg
- Remaining: 101.28%
- Remaining (without cofactor): 99.543%

Structure (SMILES): O=C(O)c1cc(Cl)ccc1S(=O)(=O)NC1CCN(c2nc(C3CC3)cc(C(F)(F)F)n2)CC1
- half-life: 1.06 h
- microsomal CLint: 26.3 µL/min/mg
- Remaining: 62.456%
- Remaining (without cofactor): 103.505%

Structure (SMILES): O=C(Nc1cc(Cl)cc(C(=O)Nc2cccc(-n3nn[nH]c3=O)c2)c1)OCc1ccccc1
- half-life: 2.48 h
- microsomal CLint: 11.2 µL/min/mg
- Remaining: 81.771%
- Remaining (without cofactor): 105.363%
